A short description of series [1]: The drug is tested on Bacteroides dorei strain: DSM17855 for biotransformation. The drug concentrations were measured before and after a 12-h incubation by liquid-chromatography-coupled mass spectrometry (LC–MS). The settings on record: phocaeicola dorei, 2 µM.
The conditions of series [2]: bacteroides stercoris, 12 h, 2 µM.
Description: The drug is tested on Bacteroides stercoris strain: ATCC43183 for biotransformation. The drug concentrations were measured before and after a 12-h incubation by liquid-chromatography-coupled mass spectrometry (LC–MS)
A short description of series [3]: The drug is tested on Anaerococcus hydrogenalis strain: DSM7454 for biotransformation. The drug concentrations were measured before and after a 12-h incubation by liquid-chromatography-coupled mass spectrometry (LC–MS). As to conditions: 2 µM.
The conditions of series [4]: bacteroides fragilis, 12 h, 2 µM.
Description: The drug is tested on Bacteroides fragilis strain: 3397 (T10) for biotransformation. The drug concentrations were measured before and after a 12-h incubation by liquid-chromatography-coupled mass spectrometry (LC–MS)
Series [5] is described as follows: The drug is tested on Parabacteroides merdae strain: ATCC43184 for biotransformation. The drug concentrations were measured before and after a 12-h incubation by liquid-chromatography-coupled mass spectrometry (LC–MS). As to conditions: 2 µM.
The nature of series [6]: The drug is tested on Bacteroides ovatus strain: ATCC8483 for biotransformation. The drug concentrations were measured before and after a 12-h incubation by liquid-chromatography-coupled mass spectrometry (LC–MS). The settings on record: 2 µM.
For series [7] the following is noted: bifidobacterium adolescentis, 12 h, 2 µM.
Description: The drug is tested on Bifidobacterium adolescentis strain: ATCC 15703 for biotransformation. The drug concentrations were measured before and after a 12-h incubation by liquid-chromatography-coupled mass spectrometry (LC–MS)
Series [8] in a line: The drug is tested on Subdoligranulum variabile strain: DSM15176 for biotransformation. The drug concentrations were measured before and after a 12-h incubation by liquid-chromatography-coupled mass spectrometry (LC–MS). As to conditions: 2 µM.
Series [9] in a line: The drug is tested on Collinsella intestinalis strain: DSM13280 for biotransformation. The drug concentrations were measured before and after a 12-h incubation by liquid-chromatography-coupled mass spectrometry (LC–MS). The settings on record: 2 µM.
For series [10] the following is noted: bacteroides fragilis, 12 h, 2 µM. This is another data set of the same source.
Description: The drug is tested on Bacteroides fragilis strain: DS-208 for biotransformation. The drug concentrations were measured before and after a 12-h incubation by liquid-chromatography-coupled mass spectrometry (LC–MS)
The conditions of series [11]: anaerostipes sp., 12 h, 2 µM.
Description: The drug is tested on Anaerostipes sp. strain: fecal isolate for biotransformation. The drug concentrations were measured before and after a 12-h incubation by liquid-chromatography-coupled mass spectrometry (LC–MS)
Series [12] can be described thus: The drug is tested on Bacteroides coprophilus strain: DSM18228 for biotransformation. The drug concentrations were measured before and after a 12-h incubation by liquid-chromatography-coupled mass spectrometry (LC–MS). As to conditions: 2 µM.
The conditions of series [13]: bacteroides fragilis, 12 h, 2 µM. The source holds these as a separate data set.
Description: The drug is tested on Bacteroides fragilis strain: NCTC 9343 for biotransformation. The drug concentrations were measured before and after a 12-h incubation by liquid-chromatography-coupled mass spectrometry (LC–MS)
Series [14] can be described thus: The drug is tested on Coprococcus comes strain: ATCC27758 for biotransformation. The drug concentrations were measured before and after a 12-h incubation by liquid-chromatography-coupled mass spectrometry (LC–MS). The class given is ADME. The arrangement: dose 2 uM, timepoint 0 vs 12 hours. As to conditions: 2 µM.
A short description of series [15]: The drug is tested on Blautia hansenii strain: DSM20583 for biotransformation. The drug concentrations were measured before and after a 12-h incubation by liquid-chromatography-coupled mass spectrometry (LC–MS). The settings on record: 2 µM.
A short description of series [16]: The drug is tested on Providencia stuartii strain: ATCC25827 for biotransformation. The drug concentrations were measured before and after a 12-h incubation by liquid-chromatography-coupled mass spectrometry (LC–MS). As to conditions: 2 µM.
A short description of series [17]: The drug is tested on Providencia rettgeri strain: DSM1131 for biotransformation. The drug concentrations were measured before and after a 12-h incubation by liquid-chromatography-coupled mass spectrometry (LC–MS). It is filed as ADME. More on the design: dose 2 uM, timepoint 0 vs 12 hours. As to conditions: 2 µM.
A short description of series [18]: The drug is tested on Eubacterium hallii strain: DSM3353 for biotransformation. The drug concentrations were measured before and after a 12-h incubation by liquid-chromatography-coupled mass spectrometry (LC–MS). The settings on record: anaerobutyricum hallii, 2 µM.
Series [19] in a line: The drug is tested on Bacteroides fragilis strain: ATCC43859 for biotransformation. The drug concentrations were measured before and after a 12-h incubation by liquid-chromatography-coupled mass spectrometry (LC–MS). The settings on record: 2 µM.
Series [20] is described as follows: The drug is tested on Bacteroides vulgatus strain: ATCC8482 for biotransformation. The drug concentrations were measured before and after a 12-h incubation by liquid-chromatography-coupled mass spectrometry (LC–MS). As to conditions: phocaeicola vulgatus, 2 µM.

Take `Cc1nc(Nc2ncc(C(=O)Nc3c(C)cccc3Cl)s2)cc(N2CCN(CCO)CC2)n1.O` [DASATINIB]: the “Bacterial Biotransformation” value in series [1] was “Compound metabolized”; in [2], “Compound metabolized”; in series [3], “Compound NOT metabolized”; in [4] it was “Compound metabolized”; in [5], “Compound NOT metabolized”; in [6], “Compound NOT metabolized”. The “Bacterial Biotransformation” value in series [7] is “Compound metabolized”; in series [8], “Compound metabolized”; in series [9], “Compound NOT metabolized”; in series [10] it was “Compound metabolized”; in series [11] it was “Compound metabolized”; in series [12] it was “Compound NOT metabolized”. Also, the “Bacterial Biotransformation” value in series [13] is “Compound metabolized”; in series [14] it was “Compound NOT metabolized”; in series [15], “Compound metabolized”; in [16], “Compound NOT metabolized”; in series [17] it was “Compound NOT metabolized”.
For the compound `CN(C)CC(c1ccc(O)cc1)C1(O)CCCCC1.O=C(O)CCC(=O)O` (stereo not given) [DESVENLAFAXINE SUCCINATE], the “Bacterial Biotransformation” value in [1], in series [2], in series [3], in series [4], in series [5] and in [6] was “Compound NOT metabolized” each time. In addition, the “Bacterial Biotransformation” value in series [7], in [8], in series [18], in series [9], in [10] and in [11] was “Compound NOT metabolized” in each case. The “Bacterial Biotransformation” value in [19], in series [12], in [13], in series [14], in series [16] and in series [17] was “Compound NOT metabolized” throughout. Moreover, the “Bacterial Biotransformation” value in series [20] is on record as “Compound NOT metabolized”.
As for `CN(C)CCC=C1c2ccccc2COc2ccccc21` [DOXEPIN], the “Bacterial Biotransformation” value in [1], in [2], in series [3], in series [4], in series [5] and in series [6] was “Compound NOT metabolized” in each case. Further, the “Bacterial Biotransformation” value in series [7], in [8], in [18], in [9], in series [10] and in series [11] was “Compound NOT metabolized” each time. Besides, the “Bacterial Biotransformation” value in series [12], in series [14], in series [15] and in series [16] was “Compound NOT metabolized” each time.
For `CCN(CC)C(C)CN1c2ccccc2Sc2ccccc21` (stereo not given) [ETHOPROPAZINE], the “Bacterial Biotransformation” value was “Compound metabolized” in series [1]; “Compound NOT metabolized” in series [2]; “Compound NOT metabolized” in [3]; “Compound NOT metabolized” in series [4]; “Compound metabolized” in series [6]; “Compound NOT metabolized” in series [7]. For the same compound, the “Bacterial Biotransformation” value in series [8], in series [18], in series [9], in series [10], in series [11] and in series [12] was “Compound NOT metabolized” each time. Also, the “Bacterial Biotransformation” value in [13] is “Compound NOT metabolized”; in [14], “Compound NOT metabolized”; in series [15], “Compound metabolized”; in series [16] it was “Compound metabolized”; in [20], “Compound metabolized”.
For the compound `CCN(CC)CCNC(=O)c1cc(Cl)c(N)cc1OC` [METOCLOPRAMIDE], the “Bacterial Biotransformation” value in series [1], in [2], in series [3], in [4], in [5] and in series [6] was “Compound NOT metabolized” in each case. The “Bacterial Biotransformation” value in [7], in series [8], in series [18], in series [9], in series [10] and in series [11] was “Compound NOT metabolized” each time. Further, the “Bacterial Biotransformation” value in [19], in series [12], in series [13], in series [14], in [16] and in series [17] was “Compound NOT metabolized” throughout. For the same compound, the “Bacterial Biotransformation” value in series [20] was “Compound NOT metabolized”.
On to `CCc1nn(CCCN2CCN(c3cccc(Cl)c3)CC2)c(=O)n1CCOc1ccccc1` [NEFAZODONE], for which the “Bacterial Biotransformation” value in [2], in [3], in [4], in series [5], in series [6] and in series [7] was “Compound NOT metabolized” throughout. Besides, the “Bacterial Biotransformation” value in [8], in series [9], in series [10], in [11], in [12] and in series [13] was “Compound NOT metabolized” each time. For the same compound, the “Bacterial Biotransformation” value in series [14], in series [15], in series [16] and in [17] was “Compound NOT metabolized” in each case.
On to `NC(=O)N1c2ccccc2CC(=O)c2ccccc21` [OXCARBAZEPINE], for which the “Bacterial Biotransformation” value is “Compound metabolized” in series [1]; “Compound metabolized” in [2]; “Compound NOT metabolized” in series [3]; “Compound NOT metabolized” in [5]; “Compound NOT metabolized” in series [6]; “Compound metabolized” in [7]. In addition, the “Bacterial Biotransformation” value in series [8] is “Compound NOT metabolized”; in series [18], “Compound NOT metabolized”; in series [9], “Compound NOT metabolized”; in series [11], “Compound NOT metabolized”; in [12] it was “Compound metabolized”; in [13], “Compound NOT metabolized”. Further, the “Bacterial Biotransformation” value in [14] is given as “Compound NOT metabolized”; in series [15], “Compound NOT metabolized”; in series [16], “Compound metabolized”; in series [17] it was “Compound metabolized”.

For the origin of these results see ChEMBL document CHEMBL5303573, “Mapping human microbiome drug metabolism by gut bacteria and their genes” (Nature, 2019).
